This is an account of results in paper PMC9853847 (2023).

Usually Kd stands for the equilibrium constant for the complex coming apart. Low values mean higher affinity, high ones lower affinity.

Holding throughout (test): FRET titration (MLCT donor to Cy5.5-labeled DNA), dose-response fit
In assay [1] the test system is 20-mer duplex (DNA, duplex) TGAGGATGTGTAGGTTGATG/CATCAACCTACACATCCTCA
To be noted: 200 mM NaCl; 5 mM Tris, pH 7.5; 1 μM DNA.

Assay [2] has as its system G-quadruplex (G4) (DNA, G4) AGGGTTAGGGTTAGGGTTAGGG
To be noted: 100 mM KCl, 10 mM Tris.HCl, pH 7.4, 1 μM DNA.

For assay [3], the system named is 3WJ (three-way junction) (DNA, junction) TGAGGATGTGTAGGTTGATG/CATCAACCTAAGAATGAGAC/GTCTCATTCTCACATCCTCA
To be noted: 200 mM NaCl, 5 mM Tris, pH 7.5, 1 μM DNA.

For assay [4], the system named is matched duplex (27-mer) (DNA, duplex) GACCAGCTTATCACCCCTAGATACCAT/ATGGTATCTAGGGGTGATAAGCTGGTC
To be noted: 200 mM NaCl; 5 mM Tris, pH 7.5; 1 μM DNA.

Assay [5] deals with mismatch 1 duplex (27-mer, CC mismatch at 4 bp) (DNA, mismatch bulge abasic) GACCAGCTTATCACCCCTAGATACCAT/ATGGTATCTAGGGGTGATAAGCTCGTC
The settings on record: 200 mM NaCl; 5 mM Tris, pH 7.5; 1 μM DNA.

Assay [6] concerns mismatch 2 duplex (27-mer, CC mismatch at 14 bp) (DNA, mismatch bulge abasic) GACCAGCTTATCACCCCTAGATACCAT/ATGGTATCTAGGGCTGATAAGCTGGTC
The settings on record: 200 mM NaCl; 5 mM Tris, pH 7.5; 1 μM DNA.

For assay [7], the system named is mismatch 3 duplex (27-mer, CC mismatch at 24 bp) (DNA, mismatch bulge abasic) GACCAGCTTATCACCCCTAGATACCAT/ATGCTATCTAGGGGTGATAAGCTGGTC
The settings on record: 200 mM NaCl; 5 mM Tris, pH 7.5; 1 μM DNA.

Where [8] appears, read: not saturated, tested up to 20 μM.

Structures are written as SMILES.

`Cc1ccc(-c2ccc(C)cn2)nc1.Cc1ccc(-c2ccc(C)cn2)nc1.[Ru+2].c1ccc2nc3c4cccnc4c4ncccc4c3nc2c1`: the Kd in assay [1] was 2.3 ± 0.5 µM; in assay [2], 3.8 ± 1.7 µM; in assay [3] it was 4.4 ± 0.7 µM; in assay [4] it was 4.7 ± 0.1 µM; in assay [5], 4.6 ± 0.6 µM; in assay [6] it was 4.3 ± 0.6 µM. The same compound displayed a Kd in assay [7] of 5.1 ± 0.3 µM.
Consider `Cc1ccc(-c2ccc(C)cn2)nc1.[Ru+2].c1ccc(-c2nc3c4cccnc4c4ncccc4c3[nH]2)cc1.c1ccc(-c2nc3c4cccnc4c4ncccc4c3[nH]2)cc1`, for which the Kd is 2.6 ± 1.0 µM in assay [1]; more than 20 µM in assay [2] (setting [8]); 6.4 ± 0.3 µM in assay [3]; 7.9 ± 2.5 µM in assay [4]; 7.3 ± 2.5 µM in assay [5]; more than 20 µM in assay [6]. This compound returned a Kd in assay [7] of 7.6 ± 1.9 µM.
For `[Ru+2].c1ccc(-c2ccccn2)nc1.c1ccc(-c2ccccn2)nc1.c1ccc2nc3c4cccnc4c4ncccc4c3nc2c1`, the dissociation constant Kd amounted to 2.8 ± 0.9 µM in assay [1]; 3.9 ± 1.3 µM in assay [2]; 4.3 ± 0.9 µM in assay [3]; 5.1 ± 0.4 µM in assay [4]; 5.0 ± 0.7 µM in assay [5]; 5.3 ± 0.6 µM in assay [6]. The compound further yielded a Kd in assay [7] of 6.5 ± 1.8 µM.
For `Cc1ccc(-c2ccc(C)cn2)nc1.[Ru+2].c1ccc2nc3c4cccnc4c4ncccc4c3nc2c1.c1ccc2nc3c4cccnc4c4ncccc4c3nc2c1`, the Kd in assay [1] was 6.3 ± 0.3 µM; in assay [2] (setting [8]) it was more than 20 µM; in assay [3] (tested up to 20 μM), more than 20 µM; in assay [4] it was 8.1 ± 1.7 µM; in assay [5], 6.4 ± 1.7 µM; in assay [6] it was 8.3 ± 3.0 µM. In assay [7], this compound came in with a Kd of 8.1 ± 3.7 µM.
